Counter-ions that a name gives are not always drawn.
Species: Rattus norvegicus
Assay: Open TG-GATES - Regimen: Single
Type: toxicity, organism-based, Sprague-Dawley
Set-up: regimen Single, gender Male, age 6 weeks
Settings: in vivo, ip, 0 mg/kg, route intraperitoneal injection, dose level Control; for APTT / Bas / Eos / Fbg / Hb / Ht / Lym / MCH / MCHC / MCV / Mono / Neu / PT / Plat / RBC / Ret / WBC: tissue Blood; for KIDNEY_L / KIDNEY_R / KIDNEY_TOTAL: tissue Kidney; for LIVER: tissue Liver; for A/G / ALP / ALT / AST / BUN / CRE / Ca / Cl / DBIL / GLC / IP / K / LDH / Na / PL / RALB / TBIL / TC / TG / TP / gamma-GTP: tissue Plasma

Structure (SMILES): CCOC(=O)/C=C\C(=O)OCC [DIETHYL MALEATE]
- TERMINAL_BW (3 h): 198.9 g
- APTT (3 h): 16.4 s
- Bas (3 h): 0%
- Eos (3 h): 0.6%
- Fbg (3 h): 209.8 mg/dL
- Hb (3 h): 13 g/dL
- Ht (3 h): 39.1%
- Lym (3 h): 69.8%
- MCH (3 h): 21.2 pg
- MCHC (3 h): 33.4%
- MCV (3 h): 63.6 fL
- Mono (3 h): 7%
- Neu (3 h): 22.8%
- PT (3 h): 12.3 s
- Plat (3 h): 114.7 x10_4/uL
- RBC (3 h): 615.6 x10_4/ul
- Ret (3 h): 10.1%
- WBC (3 h): 113.4 x10_2/uL
- KIDNEY_L (3 h): 0.9 g
- KIDNEY_R (3 h): 0.9 g
- KIDNEY_TOTAL (3 h): 1.8 g
- LIVER (3 h): 9.2 g
- A/G (3 h): 2
- ALP (3 h): 732.6 IU/L
- ALT (3 h): 39.8 IU/L
- AST (3 h): 78.2 IU/L
- BUN (3 h): 14.6 mg/dL
- CRE (3 h): 0.5 mg/dL
- Ca (3 h): 11.2 mg/dL
- Cl (3 h): 106 meq/L
- DBIL (3 h): 0.028 mg/dL
- GLC (3 h): 187 mg/dL
- IP (3 h): 10.1 mg/dL
- K (3 h): 5.2 meq/L
- LDH (3 h): 80.6 IU/L
- Na (3 h): 140.4 meq/L
- PL (3 h): 137.4 mg/dL
- RALB (3 h): 3.6 g/dL
- TBIL (3 h): 0.3 mg/dL
- TC (3 h): 79.6 mg/dL
- TG (3 h): 38 mg/dL
- TP (3 h): 5.4 g/dL
- gamma-GTP (3 h): 1 IU/L
- TERMINAL_BW (6 h): 197.4 g
- APTT (6 h): 16.4 s
- Bas (6 h): 0%
- Eos (6 h): 1%
- Fbg (6 h): 219.8 mg/dL
- Hb (6 h): 13.4 g/dL
- Ht (6 h): 40.3%
- Lym (6 h): 67%
- MCH (6 h): 21.6 pg
- MCHC (6 h): 33.3%
- MCV (6 h): 64.8 fL
- Mono (6 h): 7.4%
- Neu (6 h): 24.6%
- PT (6 h): 12 s
- Plat (6 h): 118.6 x10_4/uL
- RBC (6 h): 621.6 x10_4/ul
- Ret (6 h): 8.9%
- WBC (6 h): 102 x10_2/uL
- KIDNEY_L (6 h): 0.8 g
- KIDNEY_R (6 h): 0.9 g
- KIDNEY_TOTAL (6 h): 1.7 g
- LIVER (6 h): 8.3 g
- A/G (6 h): 1.8
- ALP (6 h): 838.6 IU/L
- ALT (6 h): 35.2 IU/L
- AST (6 h): 67 IU/L
- BUN (6 h): 14 mg/dL
- CRE (6 h): 0.4 mg/dL
- Ca (6 h): 10.6 mg/dL
- Cl (6 h): 106.6 meq/L
- DBIL (6 h): 0.018 mg/dL
- GLC (6 h): 191 mg/dL
- IP (6 h): 10.4 mg/dL
- K (6 h): 5.2 meq/L
- LDH (6 h): 70.4 IU/L
- Na (6 h): 139.8 meq/L
- PL (6 h): 142.6 mg/dL
- RALB (6 h): 3.4 g/dL
- TBIL (6 h): 0.4 mg/dL
- TC (6 h): 84.2 mg/dL
- TG (6 h): 51.2 mg/dL
- TP (6 h): 5.3 g/dL
- gamma-GTP (6 h): 1.6 IU/L
- TERMINAL_BW (9 h): 194.7 g
- APTT (9 h): 16.6 s
- Bas (9 h): 0%
- Eos (9 h): 0.6%
- Fbg (9 h): 228.4 mg/dL
- Hb (9 h): 12.7 g/dL
- Ht (9 h): 38%
- Lym (9 h): 73.8%
- MCH (9 h): 21.7 pg
- MCHC (9 h): 33.3%
- MCV (9 h): 65 fL
- Mono (9 h): 3%
- Neu (9 h): 22.6%
- PT (9 h): 11.9 s
- Plat (9 h): 117 x10_4/uL
- RBC (9 h): 585.2 x10_4/ul
- Ret (9 h): 9.9%
- WBC (9 h): 101.3 x10_2/uL
- KIDNEY_L (9 h): 0.9 g
- KIDNEY_R (9 h): 0.9 g
- KIDNEY_TOTAL (9 h): 1.8 g
- LIVER (9 h): 7.9 g
- A/G (9 h): 2.2
- ALP (9 h): 605 IU/L
- ALT (9 h): 29.6 IU/L
- AST (9 h): 66.4 IU/L
- BUN (9 h): 11.8 mg/dL
- CRE (9 h): 0.5 mg/dL
- Ca (9 h): 10.6 mg/dL
- Cl (9 h): 106.8 meq/L
- DBIL (9 h): 0.036 mg/dL
- GLC (9 h): 191.8 mg/dL
- IP (9 h): 10.3 mg/dL
- K (9 h): 5 meq/L
- LDH (9 h): 59 IU/L
- Na (9 h): 138 meq/L
- PL (9 h): 133.2 mg/dL
- RALB (9 h): 3.6 g/dL
- TBIL (9 h): 0.4 mg/dL
- TC (9 h): 76.8 mg/dL
- TG (9 h): 40.4 mg/dL
- TP (9 h): 5.3 g/dL
- gamma-GTP (9 h): 2.4 IU/L
- TERMINAL_BW (24 h): 212.9 g
- APTT (24 h): 16 s
- Bas (24 h): 0%
- Eos (24 h): 0.4%
- Fbg (24 h): 226.8 mg/dL
- Hb (24 h): 12.9 g/dL
- Ht (24 h): 38.4%
- Lym (24 h): 79.8%
- MCH (24 h): 21.8 pg
- MCHC (24 h): 33.7%
- MCV (24 h): 65 fL
- Mono (24 h): 4.6%
- Neu (24 h): 15%
- PT (24 h): 11.7 s
- Plat (24 h): 121.2 x10_4/uL
- RBC (24 h): 590.8 x10_4/ul
- Ret (24 h): 9.5%
- WBC (24 h): 106.7 x10_2/uL
- KIDNEY_L (24 h): 0.9 g
- KIDNEY_R (24 h): 0.9 g
- KIDNEY_TOTAL (24 h): 1.8 g
- LIVER (24 h): 10.1 g
- A/G (24 h): 2.2
- ALP (24 h): 864.6 IU/L
- ALT (24 h): 34.8 IU/L
- AST (24 h): 66.8 IU/L
- BUN (24 h): 20.4 mg/dL
- CRE (24 h): 0.5 mg/dL
- Ca (24 h): 10.8 mg/dL
- Cl (24 h): 106 meq/L
- DBIL (24 h): 0.018 mg/dL
- GLC (24 h): 202.2 mg/dL
- IP (24 h): 8.6 mg/dL
- K (24 h): 4.9 meq/L
- LDH (24 h): 93.4 IU/L
- Na (24 h): 140 meq/L
- PL (24 h): 143.2 mg/dL
- RALB (24 h): 3.8 g/dL
- TBIL (24 h): 0.3 mg/dL
- TC (24 h): 77.2 mg/dL
- TG (24 h): 93.6 mg/dL
- TP (24 h): 5.5 g/dL
- gamma-GTP (24 h): 2.2 IU/L
